Source: publication PMC6770581, “New Thalidomide-Resembling Dicarboximides Target ABC50 Protein and Show Antileukemic and Immunomodulatory Activities” (Biomolecules, 2019)
pIC50: −log10 of the molar value.

Assays:
[1] = tested on: HeLa cells; experiment: MTT cytotoxicity assay, HeLa; format: cell-based; conditions: Homo sapiens, 48 h, mean ± SD
Procedure: (§1) Human umbilical vein endothelial cells (purchased from Life Technologies, Carlsbad, CA, USA) were cultured according to the manufacturer’s instructions in Medium 200 supplemented with Low Serum Growth Supplement. 1 × 10^4 cells were seeded on each well on a 96-well plate (Nunc, Roskilde, Denmark). The HeLa (human cervix carcinoma, cat. #93021013), CFPAC (human pancreatic adenocarcinoma, cat. #91112501), K562 (chronic myelogenous leukemia, cat. #89121407), HL-60 (acute myelogenous leukemia, cat. #98070106), and MOLT-4 (Human acute T lymphoblastic leukemia, cat. #85011413) cells were purchased from European Collection of Authenticated Cell Cultures (ECACC). They were cultured in an RPMI 1640 medium supplemented with antibiotics (streptomycin, penicillin) and 10% fetal calf serum (20% for HL60), in a 5% CO2-95% air atmosphere. 7 × 10^3 cells were seeded on each well on a 96-well plate (Nunc). 24 hours later the cells were exposed to the test compounds. The aliquots of stock solutions of the test compounds (freshly prepared in DMSO) were added to the cell cultures to yield final concentrations of 1, 10^−1, 10^−2, 10^−3, 10^−4, and 10^−5 mM. The concentration of DMSO in the cell culture medium was 1%. The IC50 value (the concentration of a test compound required to reduce the cell survival fraction to 50% of the control) was calculated from a dose-response curve and used as a measure of cellular sensitivity to a given treatment. The IC50 values are given as means (± standard deviation (SD)) from 2 independent experiments with 4 technical replicates. The cytotoxicity of all compounds was determined by the MTT (3-(4,5-dimethylthiazol-2-yl)-2,5-diphenyltetrazolium bromide) assay (Sigma, St. Louis, MO, USA). Briefly, after 24 h or 48 h of incubation with a given compound, the cells were treated with the MTT reagent and incubation was continued for 2 h. MTT-formazan crystals were dissolved in 20% SDS and 50% DMF at pH 4.7 and VIS light absorption was measured at 570 and 650 nm on a microplate reader FLUOstar Omega (BMG Labtech, Offenburg, Germany). As a control (100% viability), cells grown in the presence of 1% DMSO were used.

[2] = tested on: K562 cells; experiment: MTT cytotoxicity assay, K562; format: cell-based; conditions: Homo sapiens, 48 h, mean ± SD
Procedure: as §1

[3] = tested on: HUVEC (human umbilical vein endothelial cells); experiment: MTT cytotoxicity assay, HUVEC; format: cell-based; conditions: 48 h, mean ± SD
Procedure: as §1

[4] = tested on: MOLT-4 cells; experiment: MTT cytotoxicity assay, MOLT-4; format: cell-based; conditions: Homo sapiens, 48 h, mean ± SD
Procedure: as §1

[5] = target: T1, ABC50 (Homo sapiens, UniProt Q8NE71); experiment: ABC50 level by Western blotting in HeLa cells (PROTAC approach); format: cell-based; parameters: endogenous in cells; conditions: 96 h, 7 (30 µM), 8 (15 µM), 9 (30 µM)
Procedure: (§2) Cells were lysed in TBS buffer containing 1% Triton X-100 and Complete® protease inhibitor cocktail (Roche) for 15 min on ice with occasional vortexing. Insoluble material was centrifuged (12,000 rpm, 15 min, 4 °C) and supernatants were collected. Total protein concentration was measured with DC Protein Assay (Bio-Rad, Hercules, CA, USA). Cell lysates containing 30 µg of total protein were mixed with Laemli buffer supplemented with SDS and β-mercaptoethanol, denatured (10 min, 95 °C) and subjected to sodium dodecyl sulfate polyacrylamide gel electrophoresis (SDS-PAGE) electrophoresis (4% stacking and 10% resolving gels). Resolved proteins were electrotransferred (semi-dry, 90 min, 1.5 mA/cm^2) to a 0.45 µm nitrocellulose membrane (Thermo Scientific, Waltham, MA, USA). Membranes were blocked for 2 hours in TBST buffer (20 mM Tris-HCl pH 7.5, 0.9% NaCl, 0.1% Tween 20) containing 5% BSA (BioShop, Burlington, ON, Canada) and probed with primary antibodies (overnight at 4 °C) diluted in TBST buffer with 0.5% BSA. Tubulin served as a loading control for IB experiments. Anti IKZF3 (rabbit monoclonal, dilution 1:500), anti IKZF1 (rabbit polyclonal, dilution 1:500) were from Abcam. Anti IRF4 (rabbit polyclonal, dilution 1:500) were from Cell Signaling Technology. Anti α-tubulin (mouse monoclonal IgG, 1:1000) was from Sigma Aldrich. Anti ABC50 antibodies (mouse monoclonal ABC5H06, dilution 1:100) was from Abcam. After extensive washing with TBST buffer, membranes were probed with secondary goat anti-rabbit or goat anti-mouse HRP-conjugated IgG (1:5000 in TBST, Santa Cruz Biotech, Dallas, TX, USA) for 45 min at room temperature. […] Protein bands intensities were analysed using Image Quant (version 5.0, GE Healthcare Life Sciences, Pittsburgh, PA, USA).
(§3) ABC50 was identified as the target of the test dicarboximides in the pull-down experiments. […] It must be noted that 7, 8 and 9 were evaluated as mixtures of enantiomers. K562 and HeLa cells were incubated with chimeras 7 (30 µM), 8 (15 µM) and 9 (30 µM) for 96 h and subsequently the level of ABC50 was determined by Western blotting. […]

[6] = target: T1, ABC50; experiment: ABC50 level by Western blotting in K562 cells (PROTAC approach); format: cell-based; parameters: endogenous in cells; host or cells: K562 cell lysate; conditions: K562, 96 h, 7 (30 µM), 8 (15 µM), 9 (30 µM)
Procedure: as §2, §3

T1 sequence (Q8NE71 whole entry): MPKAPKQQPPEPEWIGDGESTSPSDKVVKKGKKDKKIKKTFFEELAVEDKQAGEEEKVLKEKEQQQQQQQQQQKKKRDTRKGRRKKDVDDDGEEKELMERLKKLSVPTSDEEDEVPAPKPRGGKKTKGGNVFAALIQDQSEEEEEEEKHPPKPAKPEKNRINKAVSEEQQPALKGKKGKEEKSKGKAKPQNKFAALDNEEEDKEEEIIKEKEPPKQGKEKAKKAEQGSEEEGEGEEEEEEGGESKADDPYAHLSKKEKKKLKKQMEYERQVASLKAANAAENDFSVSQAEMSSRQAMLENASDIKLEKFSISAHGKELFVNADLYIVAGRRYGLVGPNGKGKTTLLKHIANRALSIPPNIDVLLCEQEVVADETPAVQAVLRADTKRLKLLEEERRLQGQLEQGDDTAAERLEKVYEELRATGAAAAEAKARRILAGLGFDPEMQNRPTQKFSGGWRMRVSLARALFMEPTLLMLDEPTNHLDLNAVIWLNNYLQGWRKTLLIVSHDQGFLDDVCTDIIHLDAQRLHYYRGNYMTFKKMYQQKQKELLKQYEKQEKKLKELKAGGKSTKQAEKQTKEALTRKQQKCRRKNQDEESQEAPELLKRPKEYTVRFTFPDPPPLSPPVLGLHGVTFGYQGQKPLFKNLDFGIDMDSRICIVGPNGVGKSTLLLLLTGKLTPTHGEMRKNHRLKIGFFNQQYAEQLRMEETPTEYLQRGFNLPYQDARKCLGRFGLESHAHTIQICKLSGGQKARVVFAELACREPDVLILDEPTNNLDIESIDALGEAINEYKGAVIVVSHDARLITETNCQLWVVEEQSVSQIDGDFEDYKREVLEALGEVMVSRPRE

melting point | level of ABC50 (Western blotting) [5] | level of ABC50 (Western blotting) [6] | SMILES | pIC50 [1] | pIC50 [2] | pIC50 [3] | pIC50 [4]
230 to 232 °C | didn’t have such pronounced effect | significantly reduced | O=C1CCC(N2C(=O)C3C(C2=O)C2(c4ccccc4)C(=O)C3(c3ccccc3)C(c3ccccc3)=C2c2ccccc2)C(=O)N1 (stereo not drawn) [Compound 9, 4-(2,6-dioxopiperidin-3-yl)-1,7,8,9-tetraphenyl-4-azatricyclo[5.2.1.0^2,6]dec-8-ene-3,5,10-trione] | < 3.70 | < 3.70 | < 3.70 | < 3.70
217 to 218 °C | significantly downregulated | significantly reduced | CC12C(=O)C(C)(C(c3ccccc3)=C1c1ccccc1)C1C(=O)N(C3CCC(=O)NC3=O)C(=O)C12 (stereo not drawn) [Compound 7, 4-(2,6-dioxopiperidin-3-yl)-1,7-dimethyl-8,9-diphenyl-4-azatricyclo[5.2.1.0^2,6]dec-8-ene-3,5,10-trione] | 3.74 | 3.77 | 3.70 | 3.82
232 to 234 °C | significantly downregulated | significantly reduced | CCC12C(=O)C(CC)(C(c3ccccc3)=C1c1ccccc1)C1C(=O)N(C3CCC(=O)NC3=O)C(=O)C12 (stereo not drawn) [Compound 8, 4-(2,6-dioxopiperidin-3-yl)-1,7-diethyl-8,9-diphenyl-4-azatricyclo[5.2.1.0^2,6]dec-8-ene-3,5,10-trione] | < 3.70 | 4.60 | 4.19 | 4.74
